One may read the IC50 as the concentration that gives 50% inhibition. In general, CC50 refers to the concentration at which the toxic effect on the cells reaches its halfway point. A high value points to lower toxicity to the cells.

Converted amounts (≈) assume the structure as drawn. The source made the active and inactive calls. The calls are words filed in the database; no cut-off is given here.

The subject of data set [1] is Enterovirus A71. Briefly: Antiviral activity against Human enterovirus 71 infected in mouse assessed as increase in survival rate. It is filed as functional.
Data set [2] deals with Enterovirus A71. Briefly: Antiviral activity against C4 type Human enterovirus 71 MP10 infected in ICR mouse assessed as recovery at 0.4 mg/kg, ip administered 2 hrs post infection qd for 7 days measured up to 14 days. It is filed as functional, organism-based. On the set-up: dose 0.4 mg/kg.
In data set [3] the test system is Enterovirus A71. Kind of data set: Antiviral activity against C4 type Human enterovirus 71 MP10 infected in ICR mouse assessed as inhibition of viral replication in muscle at 0.4 mg/kg, ip administered 2 hrs post infection qd for 7 days measured up to 7 days by qRT-PCR analysis. The class given is functional, organism-based. Also noted: dose 0.4 mg/kg. The conditions noted are these: Muscle tissue.

For data set [4], the system named is Enterovirus A71. Briefly: Antiviral activity against C4 type Human enterovirus 71 MP10 infected in ICR mouse assessed as disappearance of ruffled hair at 0.4 mg/kg, ip administered 2 hrs post infection qd for 7 days measured up to 14 days. The class given is functional, organism-based. On the set-up: dose 0.4 mg/kg.
The test system of a further data set is Mus musculus. Kind of data set: Toxicity in Human enterovirus 71 MP10 infected ICR mouse at 0.4 to 1 mg/kg, ip qd for 7 days measured up to 14 days. The class given is organism-based. To be noted: in vivo. Also noted: dose 0.4-1 mg/kg, route intraperitoneal.
Data set [5] concerns Enterovirus A71. Briefly: Antiviral activity against C4 type Human enterovirus 71 FY0805 infected in human RD cells assessed as inhibition of viral replication by plaque reduction assay. The class given is functional, organism-based. To be noted: Enterovirus A.
The subject of data set [6] is Enterovirus A71. Kind of data set: Antiviral activity against C4 type Human enterovirus 71 MP10 infected in ICR mouse assessed as increase in survival rate at 0.4 mg/kg, ip administered 2 hrs post infection qd for 7 days measured up to 14 days. It is filed as functional. To be noted: route intraperitoneal.
Data set [7] has as its system Enterovirus A71. Briefly: Antiviral activity against C4 type Human enterovirus 71 MP10 infected in ICR mouse assessed as delay in paralysis at 0.4 mg/kg, ip administered 2 hrs post infection qd for 7 days measured up to 14 days. The class given is functional, organism-based. Also noted: dose 0.4 mg/kg.
The subject of data set [8] is Enterovirus A71. Briefly: Antiviral activity against C4 type Human enterovirus 71 FY0805 infected in human RD cells assessed as inhibition of […] at 20 ug/ml treated 2 hrs post infection measured after 32 to 72 hrs by qRT-PCR analysis relative to control. The class given is functional, organism-based.
Data set [9] concerns Enterovirus A71. Kind of data set: Antiviral activity against C4 type Human enterovirus 71 MP10 infected in ICR mouse assessed as increase in survival rate at 1 mg/kg, ip administered 2 hrs post infection qd for 7 days measured up to 14 days. It is filed as functional. The conditions noted are these: route intraperitoneal.
Data set [10] deals with Enterovirus A71. Kind of data set: Antiviral activity against C4 type Human enterovirus 71 FY0805 infected in human RD cells assessed as inhibition of infectious virus yeild at 20 ug/ml treated 2 hrs post infection measured after 32 to 72 hrs by TCID50 assay relative to control. The class given is functional, organism-based.
Data set [11] can be described thus: Cytotoxicity against human RD cells. The class given is cell-based.
The nature of data set [12]: Selectivity index, ratio of CC50 for human RD cells to IC50 for C4 type Human enterovirus 71 FY0805. It is filed as functional.
In data set [13] the test system is Enterovirus A71. Briefly: Antiviral activity against C4 type Human enterovirus 71 MP10 infected in ICR mouse assessed as delay in appearance of infection symptoms at 0.4 mg/kg, ip administered 2 hrs post infection qd for 7 days measured up to 14 days. It is filed as functional, organism-based. Also noted: dose 0.4 mg/kg.
The subject of data set [14] is Enterovirus A71. Kind of data set: Antiviral activity against C4 type Human enterovirus 71 MP10 infected in ICR mouse assessed as increase in survival rate at 50 mg/kg, ip administered 2 hrs post infection qd for 7 days measured up to 14 days. It is filed as functional. To be noted: route intraperitoneal.

For the compound `O[C@H]1[C@H]2c3cc4c(cc3CN3CCC(=C[C@@H]1O)[C@H]23)OCO4` [LYCORINE], in the data set on Enterovirus A71 [1], the Activity is listed as 18%.

In the case of `O=C1O[C@H]2[C@@H]3OC(=O)c4cc(O)c(O)c(O)c4-c4c(cc(O)c(O)c4O)C(=O)OC[C@H]2O[C@@H](OC(=O)c2cc(O)c(O)c(O)c2)[C@@H]3OC(=O)c2cc(O)c(O)c3c2[C@@H]2C1=CC(=O)[C@](O)(O3)C2(O)O` [GERANIIN], the result in the data set on Enterovirus A71 [2], in the data set on Enterovirus A71 [4], in the data set with Enterovirus A71 [7] and in the data set with Enterovirus A71 [13] was Active. Besides, the inhibition entry with Enterovirus A71 [3], in the data set on Enterovirus A71 [8] and with Enterovirus A71 [10] was “Active” in each case. The values for the Activity result in the data set on Mus musculus, in the data set on Enterovirus A71 [6] and with Enterovirus A71 [9] were “Non-toxic”, 35% and 40%, respectively. The IC50 in the data set with Enterovirus A71 [5] was found to be 10 µg/mL (≈ 10.5 µM). For the same compound, the CC50 in data set [11] was 200 µg/mL (≈ 210 µM). The “Ratio CC50/IC50” value in data set [12] was 20.

Turning to `NC(=O)c1ncn([C@@H]2O[C@H](CO)[C@@H](O)[C@H]2O)n1` [RIBAVIRIN], the Activity in the data set on Enterovirus A71 [14] is given as 5%. Besides, the IC50 in the data set on Enterovirus A71 [5] was found to be 60 µg/mL (≈ 246 µM).

Source of the values: ChEMBL document CHEMBL1955845, “Antiviral effect of geraniin on human enterovirus 71 in vitro and in vivo” (Bioorg Med Chem Lett, 2012).
